# Reference: article PMC11338008, “Development and validation of CYP26A1 inhibition assay for high-throughput screening” (Biotechnology journal, 2024)
# “Also recorded” adds a separate entry of the source.
# Test system: CYP26B1, CYP1A2, CYP3A4, CYP2C9, CYP2C19, CYP2D6
# Experiment: Selectivity across other P450-Glo CYP assays (heatmap, Figure 5)
# Conditions: compared with CYP26A1 assay
# Procedure: The CYP26B1 assay was a custom assay prepared as described above except it contained recombinant human CYP26B1 co-expressed with POR in E. coli (Cypex/BioIVT, Dundee, Scotland, UK; catalog # CYP071) in place of the Cyp26a1 sequence. […] The luminescence signal in each well was measured using a ViewLux plate reader.
row,Compound,"activity pattern / selectivity across CYP assays, in words"
1,OC(Cn1cncn1)(Cn1cncn1)c1ccc(F)cc1F [Fluconazole],"inhibitory effects in the CYP26A1 assay similar to their activity patterns on CYP26B1, CYP3A4, CYP2C9, and CYP2C19"
2,CCCN(CCOc1c(Cl)cc(Cl)cc1Cl)C(=O)n1ccnc1 [Prochloraz],"inhibitory effects in the CYP26A1 assay similar to their activity patterns on CYP26B1, CYP3A4, CYP2C9, and CYP2C19"
3,"CCC(CC)C(c1ccc(Nc2nc3ccccc3s2)cc1)n1cncn1 (centres unmarked) [R115866/Talarozole, Talarozole]","inhibitory effects in the CYP26A1 assay similar to their activity patterns on CYP26B1, CYP3A4, CYP2C9, and CYP2C19; also recorded: broad-spectrum inhibition across various CYP enzymes; also recorded: significant potency in both CYP26A1/B1 and CYP3A4 assays"
4,CC(C)(C)C(=O)C(Oc1ccc(Cl)cc1)n1cncn1 (centres unmarked) [Triadimefon],"inhibitory effects in the CYP26A1 assay similar to their activity patterns on CYP26B1, CYP3A4, CYP2C9, and CYP2C19"
5,CCCOC/C(=N\c1ccc(Cl)cc1C(F)(F)F)n1ccnc1 [Triflumizole],"inhibitory effects in the CYP26A1 assay similar to their activity patterns on CYP26B1, CYP3A4, CYP2C9, and CYP2C19"
